Data set [1] has as its system Mycobacterium tuberculosis. The data set can be described thus: Antitubercular activity against Mycobacterium tuberculosis H37Rv by microplate alamar blue assay. It counts as functional.
The subject of data set [2] is Mycobacterium tuberculosis. The data set can be described thus: Antimycobacterial activity against Mycobacterium tuberculosis H37Rv ATCC 27294 by rapid direct susceptibility test. It counts as functional.
The test system of data set [3] is Mycobacterium tuberculosis. The data set can be described thus: Antimycobacterial activity against Mycobacterium tuberculosis H37Rv after 3 to 7 days by rapid direct susceptibility test. Format: functional.
The test system of data set [4] is Mycolicibacterium smegmatis. The data set can be described thus: Antimycobacterial activity against Mycobacterium smegmatis CMCC 93202 after 72 hrs by double dilution method. It counts as functional. As to conditions: CMCC 93202, 72 h.
In data set [5] the test system is Mycobacterium tuberculosis. The data set can be described thus: Antitubercular activity against Mycobacterium tuberculosis infected in IFNgamma-deficient C57BL/6 mouse assessed bacterial load in spleen at 25 mg/kg administered once daily for 8 days measured 28 days post infection. It counts as functional.
Data set [6] deals with Mycobacterium tuberculosis. The data set can be described thus: Antitubercular activity against Mycobacterium tuberculosis infected in IFNgamma-deficient C57BL/6 mouse assessed bacterial load in lung at 25 mg/kg administered once daily for 8 days measured 28 days post infection. It counts as functional.
In a further data set the test system is HepG2. The data set can be described thus: Anticancer activity against human HepG2 cells after 48 hrs by MTT assay. It counts as functional, cell-based. As to conditions: HepG2, 48 h. In general terms: Tetrazolium assays rely on reduction of a dye to a coloured formazan, in cell work by metabolically active cells.
Another data set deals with A549. The data set can be described thus: Anticancer activity against human A549 cells after 48 hrs by MTT assay. It counts as functional, cell-based. Particulars: A549, 48 h.
In a further data set the test system is SW480. The data set can be described thus: Anticancer activity against human SW480 cells after 48 hrs by MTT assay. It counts as functional, cell-based. As to conditions: SW480, 48 h.
A further data set has as its system HeLa. The data set can be described thus: Anticancer activity against human HeLa cells after 48 hrs by MTT assay. Format: functional, cell-based.
In data set [7] the test system is Staphylococcus epidermidis. The data set can be described thus: Antibacterial activity against Staphylococcus epidermidis by agar dilution method. It counts as functional. Background: In agar dilution the substance is mixed into plates at graded concentrations.
For the next data set, the system named is Pseudomonas aeruginosa. The data set can be described thus: Antibacterial activity against Pseudomonas aeruginosa by agar dilution method. It counts as functional.
The next data set deals with Shigella flexneri. The data set can be described thus: Antibacterial activity against Shigella flexneri by agar dilution method. It counts as functional.
In a further data set the test system is Vibrio cholerae. The data set can be described thus: Antibacterial activity against Vibrio cholerae by agar dilution method. Format: functional.
A further data set concerns Salmonella typhi. The data set can be described thus: Antibacterial activity against Salmonella typhi by agar dilution method. It counts as functional, Salmonella enterica subsp. enterica serovar Typhi. Particulars: Salmonella enterica.
The next data set deals with Klebsiella pneumoniae. The data set can be described thus: Antibacterial activity against Klebsiella pneumoniae by agar dilution method. Format: functional.
Data set [8] relates to Escherichia coli. The data set can be described thus: Antibacterial activity against Escherichia coli by agar dilution method. Format: functional.
The subject of a further data set is Citrobacter freundii. The data set can be described thus: Antibacterial activity against Citrobacter freundii by agar dilution method. It counts as functional.
In another data set the test system is Staphylococcus aureus. The data set can be described thus: Antibacterial activity against Staphylococcus aureus by agar dilution method. It counts as functional.
Data set [9] deals with Mycobacterium tuberculosis. The data set can be described thus: Potency index, ratio of rifampicin MIC to test compound MIC for Mycobacterium tuberculosis H37Rv. Format: functional.
Data set [10] in a line: Toxicity in po dosed CF mouse measured after 1 week. Format: organism-based. Particulars: in vivo.
Data set [11] deals with Escherichia coli. The data set can be described thus: Antibacterial activity against Escherichia coli NCTC 10418 infected in po dosed CF mouse measured after 1 week. Format: functional. As to conditions: NCTC 10418, po, 168 h.

Values after ≈ are worked out from the molar mass of the structure shown.

For `COc1cc(Cc2cnc(/N=C3\C(=O)N(CN4CCN(c5cc6c(cc5F)c(=O)c(C(=O)O)cn6C5CC5)CC4)c4ccc(Cl)cc43)nc2N)cc(OC)c1OC`, the MIC (in general, the least concentration at which growth counts as inhibited) in data set [1] was 0.78 to 3.13 µg/mL (≈ 0.978 to 3.93 µM).
In the case of `COc1c(N2C[C@@H]3CCCN[C@@H]3C2)c(F)cc2c(=O)c(C(=O)O)cn(C3CC3)c12` [MOXIFLOXACIN], the MIC in data set [2] was 0.1 to 1 µg/mL (≈ 0.249 to 2.49 µM); in data set [3], 0.1 µg/mL (≈ 0.249 µM); in [4], 0.1 to 1 µg/mL (≈ 0.249 to 2.49 µM).
As to `COc1cc(Cc2cnc(/N=C3\C(=O)N(CN4CCN(c5cc6c(cc5F)c(=O)c(C(=O)O)cn6C5CC5)CC4)c4ccc(F)cc43)nc2N)cc(OC)c1OC`, the Activity in data set [5] worked out at 4.08 log10CFU; in data set [6], 5.26 log10CFU. In addition, in data set [1], the MIC was 0.78 µg/mL (≈ 0.999 µM).
With `CC1CN(c2c(F)c(N)c3c(=O)c(C(=O)O)cn(C4CC4)c3c2F)CC(C)N1CN1C(=O)/C(=N\c2ccc(S(=O)(=O)Nc3ncccn3)cc2)c2ccccc21` (stereo not given), the IC50 in the data set on HepG2, in the data set on A549, in the data set with SW480 and in the data set with HeLa was 18.3 to 50 µg/mL (≈ 23.4 to 63.8 µM) each time.
`CCn1cc(C(=O)O)c(=O)c2cc(F)c(N3CCN(CN4C(=O)C(=O)c5cc(C)ccc54)C(C)C3)c(F)c21` (stereo not given): the MIC (in data set [7]; with Pseudomonas aeruginosa; in the data set on Shigella flexneri; against Vibrio cholerae; in the data set with Salmonella typhi; in the data set on Klebsiella pneumoniae) was 0.25 to 2.5 µg/mL (≈ 0.477 to 4.77 µM) in each case. Moreover, the MIC against Escherichia coli [8], against Citrobacter freundii and against Staphylococcus aureus was 0.25 to 2.5 µg/mL (≈ 0.477 to 4.77 µM) throughout.
In data set [1], `CCn1cc(C(=O)O)c(=O)c2cc(F)c(N3CCN(CN4C(=O)/C(=N\c5ncc(Cc6cc(OC)c(OC)c(OC)c6)c(N)n5)c5cc(F)ccc54)C(C)C3)c(F)c21` (stereo not given) showed an MIC of 0.78 to 3.13 µg/mL (≈ 0.974 to 3.91 µM).
As for `CCn1cc(C(=O)O)c(=O)c2cc(F)c(N3CCNC(C)C3)c(F)c21` (stereo not given) [LOMEFLOXACIN], the MIC (in [7]; in the data set on Pseudomonas aeruginosa; in the data set with Shigella flexneri; in the data set with Vibrio cholerae; against Salmonella typhi; in the data set with Klebsiella pneumoniae) was 0.1 to 2.5 µg/mL (≈ 0.285 to 7.12 µM) throughout. The MIC with Escherichia coli [8], in the data set on Citrobacter freundii and against Staphylococcus aureus was 0.1 to 2.5 µg/mL (≈ 0.285 to 7.12 µM) throughout.
For `COc1cc(Cc2cnc(/N=C3\C(=O)N(CN4C(C)CN(c5c(F)c(N)c6c(=O)c(C(=O)O)cn(C7CC7)c6c5F)CC4C)c4ccccc43)nc2N)cc(OC)c1OC` (stereo not given), the IC50 with HepG2, in the data set on A549, in the data set on SW480 and in the data set on HeLa was 18.3 to 50 µg/mL (≈ 22.2 to 60.7 µM) throughout.
For the molecule `COc1cc(Cc2cnc(/N=C3\C(=O)N(CN4CCN(c5c(F)cc6c(=O)c(C(=O)O)cn(C7CC7)c6c5OC)CC4C)c4ccc(Cl)cc43)nc2N)cc(OC)c1OC` (stereo not given), the MIC in data set [1] lay in the range of 0.78 to 3.13 µg/mL (≈ 0.927 to 3.72 µM).
Turning to `CCc1cc(C(N)=S)ccn1` [ETHIONAMIDE], in [1], it took 2.5 µg/mL (≈ 15 µM) to inhibit growth (MIC).
Consider `CO[C@H]1/C=C/O[C@@]2(C)Oc3c(C)c(O)c4c(O)c(c(/C=N/N5CCN(C)CC5)c(O)c4c3C2=O)NC(=O)/C(C)=C\C=C\[C@H](C)[C@H](O)[C@@H](C)[C@@H](O)[C@@H](C)[C@H](OC(C)=O)[C@@H]1C` [RIFAMPIN], for which the results for the MIC in [3] and in data set [1] were 0.25 to 0.39 µg/mL (≈ 0.304 to 0.474 µM) and 0.125 µg/mL (≈ 0.152 µM), respectively.
With `CO/N=C1/C(=O)N(CCn2cc(CN3CCC[C@H]4CN(c5c(F)cc6c(=O)c(C(=O)O)cn(C7CC7)c6c5OC)C[C@H]43)nn2)c2ccc(Br)cc21`, the Ratio in data set [9] is 4. Moreover, 0.1 µg/mL (≈ 0.131 µM) was the least that counted as inhibitory in data set [3] (MIC).
For the molecule `CC[C@@H](CO)NCCN[C@@H](CC)CO` [ETHAMBUTOL], in data set [1], the lowest concentration to inhibit growth (MIC) was 1.88 µg/mL (≈ 9.2 µM).
On the same count and under the same terms, then `CCn1cc(C(=O)O)c(=O)c2cc(F)c(N3CCN(CN4C(=O)/C(=N\c5ncc(Cc6cc(OC)c(OC)c(OC)c6)c(N)n5)c5cc(F)ccc54)CC3)cc21`, with 0.78 to 3.13 µg/mL (≈ 1.01 to 4.07 µM); and `COc1cc(Cc2cnc(/N=C3\C(=O)N(CN4CCN(c5cc6c(cc5F)c(=O)c(C(=O)O)cn6C5CC5)CC4)c4ccc(C)cc43)nc2N)cc(OC)c1OC`, with 0.78 to 3.13 µg/mL (≈ 1 to 4.03 µM).
As for `CCn1cc(C(=O)O)c(=O)c2cc(F)c(N3CCNCC3)cc21` [NORFLOXACIN], in data set [10], the LD50 (commonly the dose at which mortality reaches 50%) at 168 h was 4000 mg/kg. For the same molecule, the ED50 (in general, the dose that gives a 50% effect, or the effect in half of the subjects) in the data set on Escherichia coli [11] was 6 mg/kg.

Values taken from ChEMBL document CHEMBL4382234, “Fluoroquinolone-isatin hybrids and their biological activities” (Eur J Med Chem, 2019).
